A short description of data set [1]: Solubilities of salts in acidified [2% v/v H2SO4] acetonitrile-water mixtures at 25°C (Table 3). Conditions: 2% v/v H2SO4, water.
Data set [2] can be described thus: Hydrolysis/decomposition of nitriles in acidified solutions. The data set is classed as physicochemical.
Data set [3] can be described thus: Oxidation of stirred cuprous sulphate solutions in acidified acetonitrile-water mixtures under oxygen (Table 2). Particulars: 1.5% wt Cu^+, O2 1 atm. The data set is classed as physicochemical. An excerpt:
Effect of Nitrile and Acid Concentration.

The conditions of data set [4]: acidified acetonitrile-water (10.8% ch3cn).
Protocol: Solubilities of salts in acidified [2% v/v H2 SO4 ] acetonitrile-water mixtures at 25°C.
Data set [5] is described as follows: Solubility of sulphur in refluxing acetonitrile-water-sulphuric acid. The data set is classed as physicochemical. Particulars: refluxing 50% acetonitrile, 45% water, 5% sulphuric acid. How it is done: c. Sulphur dissolved in refluxing 50% acetonitrile, 45% water, 5% sulphuric acid to the extent of about 0.05 gms/100 ml.
The conditions of data set [6]: 2 molar sulphuric acid, 100°C; reported; cited from earlier work.

The text below walks through data of patent US3937657A, “Electrowinning of copper” (Anumin Pty. Limited, priority 1971, dated 1976).

The structures appear in SMILES notation. Like-named read-outs stand apart in the source and are kept apart here.

Regarding `O=S(=O)([O-])[O-].[Cd+2]` [Cd SO4.8H2 O], in data set [1] (15% v/v CH3CN), the “Solubility (MX)” value was determined as 492 mg/mL.

On to `CC#N` [Acetonitrile, acetonitrile], for which the “hydrolysed to acetic acid and ammonium acetate within” value in data set [2] (2 molar sulphuric acid, sealed tube, 100°C) is not above 24 h. The “loss of acetonitrile on heating” value in data set [2] (acetonitrile, water, cuprous sulphate and 1N sulphuric acid, sealed tubes, 50°C, 2 months) was “had not lost detectable amounts”.

As to `O=S(=O)([O-])[O-].[Cu+].[Cu+]` [Cu2 SO4, cuprous sulphate], the “Time for 30% of theoretical O2 uptake” value came to 95 min in data set [3] (10% vol CH3CN, 5% vol H2SO4, 25°C); 330 min in data set [3] (30% vol CH3CN, 2.5% vol H2SO4, 25°C); 300 min in data set [3] (30% vol CH3CN, 5% vol H2SO4, 25°C); 375 min in data set [3] (30% vol CH3CN, 10% vol H2SO4, 25°C); 340 min in data set [3] (50% vol CH3CN, 5% vol H2SO4, 25°C).

In the case of `O.O.O.O.O.O.O.O.O.O=S(=O)([O-])[O-].O=S(=O)([O-])[O-].O=S(=O)([O-])[O-].[Fe+3].[Fe+3]` [Fe2 (SO4).9H2 O], the “Solubility (MX)” value in data set [4] worked out at 325 mg/mL.

Consider `S1SSSSSSS1` [Sulphur, sulphur], for which the Sulphur dissolved result in data set [5] is “about 0.05 gms/100 ml”.

Regarding `O.O.O.O.O.O.O.O=S(=O)([O-])[O-].[Ni+2]` [NiSO4.7H2 O], in data set [1] (16.6% v/v CH3CN), the “Solubility (MX)” value came to 231 mg/mL.

As for `N#CCCO` [2-hydroxycyanoethane], the “rate of hydrolysis compared with acetonitrile” value in data set [6] is reported as “comparable rate”.

For `N#CCO` [cyanohydrin of formaldehyde], in data set [2] (water and suitable acids, cuprous salts), the “decomposition in the nitrile suitability tests” value was “decomposed rapidly”.
